Data reported in ChEMBL document CHEMBL1142085, “Once-weekly micafungin therapy is as effective as daily therapy for disseminated candidiasis in mice with persistent neutropenia” (Antimicrob Agents Chemother, 2007).
In brackets after ≈: the same amount, converted by molar mass. Activity calls are given as the source filed them. The rule behind the calls is not given here. *1 amine or outer side, *2 acyl side, *3 side chain or, on linkers, in order; H or OH if unused. Where a SMILES comes first, the peptide text is derived from it. Bridges are numbered along the chain shown (N, C = ends). [ ]: non-standard residue; d: D form. The star is where a group is joined. hTyr(3S-OH,4S-OH,3'-OSO3H) = N[C@H](C(=O)O)[C@H](O)[C@@H](O)c1ccc(O)c(OS(=O)(=O)O)c1; Orn(4R-OH,5R-OH) = O=C([C@H](C[C@@H](O)[C@@H](O)N[*:3])N[*:1])[*:2]; Pro(3S-OH,4S-Me) = C[C@H]1CN[C@H](C(=O)O)[C@H]1O; X1 = CCCCCOc1ccc(-c2cc(-c3ccc(C(=O)*)cc3)no2)cc1; Gln(3R-OH) = NC(=O)C[C@@H](O)[C@H](N)C(=O)O; Hyp = O=C(O)[C@@H]1C[C@@H](O)CN1

Key:
[1] = test system: Nakaseomyces glabratus; test: Antifungal activity against Candida glabrata isolated from candidemia patient after 48 hrs; format: functional
[2] = test system: Nakaseomyces glabratus; test: Reduction of kidney fungal burden in Candida glabrata infected ip dosed neutropenic Swiss Webster mouse; format: functional
[3] = test system: Nakaseomyces glabratus; test: Reduction of lung fungal burden in Candida glabrata infected ip dosed neutropenic Swiss Webster mouse; format: functional
[4] = test system: Nakaseomyces glabratus; test: Reduction of spleen fungal burden in Candida glabrata infected ip dosed neutropenic Swiss Webster mouse; format: functional
[5] = test system: Nakaseomyces glabratus; test: Reduction of kidney fungal burden in Candida glabrata infected neutropenic Swiss Webster mouse at >=50 mg/kg, ip after 7 days; format: functional, organism-based
[6] = Serum clearance in Candida glabrata infected neutropenic Swiss Webster mouse; format: ADME, organism-based
[7] = test system: Nakaseomyces glabratus; test: Reduction of fungal burden in Candida glabrata infected neutropenic Swiss Webster mouse at 100 mg/kg, ip after 7 days; format: functional, organism-based; set-up: dose 100 mg/kg
[8] = test system: Nakaseomyces glabratus; test: Antifungal activity against Candida glabrata isolated from candidemia patient after 24 hrs; format: functional

Structure (SMILES): CCCCCOc1ccc(-c2cc(-c3ccc(C(=O)N[C@H]4C[C@@H](O)[C@@H](O)NC(=O)[C@@H]5[C@@H](O)[C@@H](C)CN5C(=O)[C@H]([C@H](O)CC(N)=O)NC(=O)[C@H]([C@H](O)[C@@H](O)c5ccc(O)c(OS(=O)(=O)O)c5)NC(=O)[C@@H]5C[C@@H](O)CN5C(=O)[C@H]([C@@H](C)O)NC4=O)cc3)no2)cc1 [MICAFUNGIN] (X1-[Orn(4R-OH,5R-OH)]T[Hyp][hTyr(3S-OH,4S-OH,3'-OSO3H)][Gln(3R-OH)][Pro(3S-OH,4S-Me)]; lactam 1-C)
- MIC [1]: 0.02 µg/mL (≈ 0.0157 µM)
- ED50 [2]: 14.7 mg/kg
- ED50 [3]: 17.3 mg/kg
- ED50 [4]: 7.38 mg/kg
- Activity [5]: Active
- clearance [6]: 0.0133 mL/min
- Activity [7]: Active
- MIC [8]: 0.02 µg/mL (≈ 0.0157 µM)
